Reference: US20230121771A1, “A PHARMACEUTICAL COMBINATION OF AN ARTEMISININ COMPOUND, 5-AMINOLEVULINIC ACID OR METHYL-5-AMINOLEVULINIC ACID AND A CHEMOTHERAPEUTIC AGENT” (JLP Health GmbH, priority 2020, published 2023)

Tests used:
Type in all cases: cell-based
[1] = test system: neuroblastoma cells (SHSY5Y), Jurkat cells; assay: Cell survival by automated cell counting in SHSY5Y and Jurkat cells; settings: artemisinin 0.5 µM, 5-ALA 0.25 mM
Description: (§1) For dosage responses, cells were seeded in 96-wells (25.000/ 96-well, in triplicate -where indicated) and subjected to compounds for 48 h. Cell viability was assessed using automated cell counting (high-throughput flow cytometry), Alamar Blue staining (Invitrogen, DAL1100) or CellTiter-Glo Luminescent Assay (Promega, G7570, according to the manufacturer’s protocol) respectively.

mouse ESCs = assay: Cell survival of artemisinin treated mouse embryonic stem cells (Alamar Blue, 48 h); settings: artemisinin combined with acifluorfen or 5-ALA (0.5 mM)
Description: as §1

[2] = test system: murine and human cancer cell lines; assay: Cell viability of artemisinin treated cancer cell lines in presence and absence of 5-ALA (Alamar Blue, 48 h); settings: 4T1, Mcf7, B16F10, 5-ALA 0.5 mM
Description: as §1

[3] = test system: neuroblastoma cells (SHSY5Y), Jurkat and HL-60 cells; assay: ROS levels by Dihydroethidium (DHE) staining and flow cytometry in cell lines; settings: SHSY5Y and Jurkat cells; artemisinin 0.5 µM, 5-ALA 0.25 mM
Description: Treated cells were collected, washed with 1x HBSS (without Ca2+ and Mg2+), incubated with 1mM DHE (Dihydroethidium (Hydroethidine), Invitrogen, D11347) in 1x HBSS for 45 min at 37° C., washed twice and counterstained with DAPI or a viability dye (eBioscience™ Fixable Viability Dye eFluor™ 780, 65-0865-18) for 10 min on ice. Cells were then collected, strained and analysed using flow cytometry for DHE in the red fluorescent spectrum (PE channel).

[4] = test system: human primary glioblastoma cell lines; assay: Survival of artemisinin treated primary human glioblastoma cells upon 5-ALA (CellTiter-Glo, 72 h); settings: three independently derived human primary glioblastoma cell lines
Description: […] Cell viability was assessed using automated cell counting (high-throughput flow cytometry), Alamar Blue staining (Invitrogen, DAL1100) or CellTiter-Glo Luminescent Assay (Promega, G7570, according to the manufacturer’s protocol) respectively.

[5] = test system: human cerebral tumor organoids (CNS-PNET); assay: Compound profiling in CNS-PNET cerebral tumor organoids (GFP-positive tumor cells)
Description: Tumor initiation was induced by either oncogene amplification, using a Sleeping Beauty (SB) transposase, or mutation of tumor suppressor genes, using the CRISPR-Cas9 system in day 10 old embryoid bodies (EBs). Plasmids carrying the transposase as well as GFP and the desired oncogenes or expressing Cas9 nuclease were introduced by electroporation. In brief, a mixture of 1 μg DNA and 100 μl nucleofector solution was added to 10 EBs and transferred to a nucleofection cuvette. The Lonza Nucleofector 2b and the A-023 program were used for electroporation/ nucleofection. Thereafter, EBs were transferred into 10 cm dishes containing differentiation media containing vitamin A and embedded into Matrigel 24 hours later. Two different types of tumors were initiated {Bian:2018gs}: Central nervous system primitive neuroectodermal tumors (CNS-PNET) were induced by the overexpression of Myc. Glioblastoma-like tumor group 2 (GBM-2) was caused by mutagenesis of the tumor suppressor genes p53, NF1 and PTEN. All plasmids were designed by Shan Bian {Bian, S. et al. Genetically engineered cerebral organoids model brain tumor formation. Nat. Methods 15, 631-639 (2018)}. Cerebral tumor organoids were treated with different compounds and the survival and growth of transformed as well as untransformed neurons was monitored. Fluorescence labeling of tumor cells allowed clear distinguishability of transformed cells as compared to non-labeled throughout the experiment using brightfield microscopy, as well as fluorescence imaging. The transformed tumor tissue and untransformed neurons within the same organoid was monitored using fluorescence imaging, as well as brightfield microscopy throughout the experiment. At the endpoint of the treatment (d5 or d7 respectively), the number of GFP-positive cells was assessed by flow cytometry. Cerebral (tumor) organoids were enzymatically and mechanically dissociated using 1x trypsin, 35-45 min incubation at 37° C., and gentle shaking. […] Single cells in suspension were counterstained with DAPI or a viability dye (eBioscienceTM Fixable Viability Dye eFluorTM 780, 65-0865-18), and analysed using flow cytometry (BD LSRFortessa HTS Cell Analyzer). The amounts of GFP-positive cells were analyzed. […] Brightfield and green fluorescence images were taken from the same area. Additionally, for image analyses, the Celldiscoverer 7 (Zeiss), a fully integrated high-end automated live cell imaging system, was used. Cerebral organoids were fixed in 4% PFA (room temperature, 1 h), incubated with 30% sucrose (4° C., o/n), OCT (Tissue-tek OCT Compound, […], 4583) embedded and 20 μm sections were cryostat cut (-12/-14° C.). […] Fluorescence Mounting Medium (Dako, S302380) was used for mounting the sample slides. […]

NCC(=O)CCC(=O)O [5-ALA, 5-amino-4-oxopentanoic acid]
cell viability / cell death [1]: slightly reduced cell viability | susceptibility to artemisinin (cell survival) (mouse ESCs): increased the sensitivity to the anti-malarial compound | sensitivity to artemisinin under combinatorial treatment with 5-ALA [2]: gained hypersensitive to artemisinin | ROS levels (DHE staining, MFI) [3]: triggered ROS | sensitivity to artemisinin cytotoxicity upon 5-ALA [4]: induced artemisinin hypersensitivity to artemisinin cytotoxicity | GFP+ tumor tissue, immunohistochemistry of sectioned organoids [5]: losss of GFP+ tumor tissue | effect on non-transformed neuronal tissues in the cerebral organoids ([5]; Sox2 expressing cells, rosette-like structures): no apparent effect on the non-transformed neuronal tissues | growth of GFP-positive tumor organoids ([5]; very high concentrations, compound alone): notable growth inhibition
